Source: patent US9877993B2, “Composition for cognitive and cosmetic purposes” (BIOTROPICS MALAYSIA BERHAD, priority 2012, dated 2018)
Read-outs that look alike come from different tables or passages of the source.

Legend:
[1] = tested on: Collagenase from Clostridium histolyticum; assay: Collagenase inhibition bioassay in vitro (EnzChek gelatinase/collagenase kit); format: biochemical
Description: Solvents and reagents: EnzChek™gelatinase/Collagenase Assay kit (E12055, Molecular probes, Invitrogen, USA, Stored at −20° C.) containing: DQ gelatin from pigskin, Flourescein conjugate, 10× reaction buffer, 1,10 Phenanthroline monohydrate, Collagenase from Clostridium histolyticum.
2.5 mg of sample was prepared by dissolving it into 200 μl of DMSO and made up to 10 ml with 1× reaction buffer. Further dilutions were made as required. The enzymatic cleavage of DQ gelatin, Flourescein conjugate releases flourescent peptide. The increase in fluorescence is proportional to proteolytic activity. The digested product form DQ gelatin, Flourescein conjugate is excited with light at 490 nm and the emitted light at 520 nm is detected in a fluorometric plate reader.
Collagenase inhibition assay was carried out as per the kit insert of EnzChek™gelatinase/Collagenase Assay kit (E12055, Molecular probes, Invitrogen, USA). In brief, 80 μl of 1× reaction buffer/vehicle buffer/test solution/positive control of various concentrations, 100 μl of enzyme solution (0.1 units/ml), 20 μl of substrate solution (1 mg/ml) were added and mixed for 15 sec, incubated at 25° C. for 2 hours and read in a fluorescence microplate reader [Fluostar Optima, BMG Labtech, Germany] with the following parameters wherein it was excited at 490 nm, and the emission at 520 nm was recorded by the Costar 96 fluorometric plate reader.
A control reaction was carried out without the test samples respective sample blanking, control blanking and vehicle blanking were done (which contained all reagents except the enzymes). The percentage inhibition was calculated as follows:
[formula] where AFU=arbitrary fluorescence units and IC50 was calculated using log-probit analysis.

scopolamine treated mice = assay: Barnes maze, scopolamine induced deficits in learning and memory; format: in vivo, C57BL/6 mice
Source text: The animals are placed on an elevated, open, circular platform. The animal is exposed to intense light, or to a loud noise. In response to this intense stimulation the animal searches for shelter and enters one of the holes around the platform. Although the device was originally designed to be used with rats, soon it experienced modifications in order to be used with mice as well. Indeed, the device has been considered appropriate for this species because of its ability to find and escape through small holes.
Scopolamine, a muscarinic cholinergic antagonist, is known to cause impairments in Barnes maze testing. These impairments can be reversed by increasing cholinergic tone by the administration of cholinesterase inhibitors such as donepezil.
The scopolamine induced deficits in learning were evidenced by the increase in both total and primary errors, total and primary latency and total and primary path length. The Barnes mazes testing involves the parameters as set forth below.
Primary Path Length (cm): The distance moved by the subject before first contact with the escape hole. First contact is defined as the point of the nose touching the escape hole.
Total Path Length (cm): The distance moved by the subject before completing the task. Completion of task is defined as the entering of the subject into escape box. This ends the trial.
Primary Errors: The count of the number of errors made by the subject before first contact with the escape hole. Any contact of the nose point to a non-escape hole is considered as an error. Multiple contacts to the same non-escape hole are counted as multiple errors under this context. Total Errors: The count of the number of errors made by the subject throughout the trial. Any contact of the nose point to a non-escape hole is considered as an error. Multiple contacts to the same non-escape hole are counted as multiple errors under this context. Primary Latency (sec): The latency to the first contact with the escape hole by the nose point of the subject. Total Latency (sec): The latency for subject to complete the task. Completion of task is defined as the entering of the subject into escape box, which ends the trial. (i) Test Article
The test articles, propriety Polygonum minus extract and commercially available Ginkgo biloba extract (comparator extract) were used in this study. These extracts were prepared and stored for the project to the supplier's specifications. The doses of the extract chosen for the study were identified by the supplier A 30× stock suspension was prepared every week for each article. This was aliquot into batches which were then stored at 4° C. throughout the week. The stock suspension was diluted with ultra-pure water to working concentration every day before the dosing, and discarded after the dosing. Oral gavage needles were filled with the required amounts of suspension. Care was taken to ensure the even distribution of particles by vortex-mixing the suspensions before preparation in individual syringes, and also by syringe-mixing the diluted test article. The dose and time of scopolamine administration has been previously shown to produce deficits in spatial navigation tasks in rodents. The dose was increased from the initially reported 0.3 mg/kg to 0.5 mg/kg, as the higher dose would produce a more reliable deficit.
2-6 month-old male C57BL/6 mice (20-25 g), (n=12 to 14) were supplied by BioLASCO (Taiwan). They were housed in an IVC system (Allentown, USA) under a 12/12-h light/dark (200-300 Lux) cycle (lights on 07:00 h) with free access to food (Labdiet, formulated laboratory chow) and water and humidity keep between 50%-70%. The total animals used for each treatment are shown in the Table 13 below (subjects used for each arm in the experiment).
Chronic treatment via p.o. was conducted with the TEST COMPOUNDS (test dose 1 and 2) as per Table 12 and Table 12 above and CONTROL […] (vehicle and ginkgo) continuously for 19 days. Dosing was given daily at 1800 hr. […]

[2] = donepezil 1 mg/kg i.p. + scopolamine
[3] = scopolamine 0.5 mg/kg i.p. vs vehicle control treated group
[4] = scopolamine 0.5 mg/kg i.p. vs vehicle treated control mice

SMILES: O.c1cnc2c(c1)ccc1cccnc12 [1,10-Phenanthroline monohydrate]
- % inhibition [1]: 40.81%
- % inhibition ([1]; 12.5 μM): 0.00%
- % inhibition ([1]; 25 Mm): 11.60%
- % inhibition ([1]; 100 Mm): 88.00%
- IC50 ([1]; log-probit analysis, read-out: IC50 (95% confidence interval)): 53.2 µM

SMILES: COc1cc2c(cc1OC)C(=O)C(CC1CCN(Cc3ccccc3)CC1)C2 (stereo not shown) [donepezil]
- Primary and total latency, scopolamine induced deficit (scopolamine treated mice; [2]): A similar result is obtained
- Scopolamine induced deficits in acquisition (learning) phase (scopolamine treated mice; [2]): attenuated
- Path length, scopolamine induced deficit (scopolamine treated mice; donepezil 1 mg/kg i.p. + scopolamine 0.5 mg/kg i.p.): did not show a scopolamine induced deficit
- Probe trial, time spent in target segment (memory deficit) (scopolamine treated mice; donepezil 1 mg/kg i.p. + scopolamine, day 5): reversed the scopolamine deficit
- Total errors, scopolamine induced deficit (scopolamine treated mice; donepezil 1 mg/kg i.p. + scopolamine, days one and two): deficits for total errors were not seen

SMILES: CN1[C@@H]2C[C@@H](OC(=O)[C@H](CO)c3ccccc3)C[C@H]1[C@@H]1O[C@@H]12 [scopolamine]
- Primary and total latency, learning (scopolamine treated mice; scopolamine 0.5 mg/kg i.p. vs vehicle control): induces a deficit in learning
- Primary path length, performance (scopolamine treated mice; [3]): decreased performance only on day two
- Total path length, days with decreased performance (scopolamine treated mice; [3]): days one two and three
- Primary errors, learning (scopolamine treated mice; [4]): induced a deficit in learning on day two
- Total errors, days with deficit in learning (scopolamine treated mice; [4]): on days one and two
- Probe trial, preference for target segment (memory) (scopolamine treated mice; scopolamine 0.5 mg/kg i.p., day 5): induced a deficit in memory
